Results reported in patent US9872493B2, “Method for promoting plant growth” (SUMITOMO CHEMICAL COMPANY, LIMITED, priority 2012, dated 2018).

What follows are compounds tested on Nicotiana benthamiana (assay: Test for evaluating growth promotion under low-temperature stress by hydroponics of Nicotiana benthamiana (Test Examples 4-6)). Conditions: compound at 0.1 ppm, 7 days at 1.5±1.0° C. low-temperature stress, then 3 days at 22° C., green leaf area vs untreated control, read-out: value of a relative leaf area (equation (1)).
Format: in vivo
Description: A DMSO solution, which contained one of the compounds 5, 14, 22, 23, 24, 25, 26, 28, 30, 31, 32, 33, 34, 35, 38, 39 and 40 of the present invention at a concentration of 10,000 ppm, was prepared. The DMSO solution of the compound of the present invention was added at a volume ratio of 1/1,000 to the Murashige•Scoog medium of a ½-fold concentration (a medium containing 2.3 g of mixed salts (manufactured by Wako Pure Chemical Industries, Ltd.), 200 mg of Myo-inositol (manufactured by Sigma-Aldrich Co. LLC.), 2 mg of nicotinic acid (manufactured by Wako Pure Chemical Industries, Ltd.), 2 mg of pyridoxine hydrochloride (manufactured by Wako Pure Chemical Industries, Ltd.), 20 mg of thiamine hydrochloride (manufactured by Wako Pure Chemical Industries, Ltd.), 20 g of sucrose (manufactured by Wako Pure Chemical Industries, Ltd.), and 1 g of MES (manufactured by DOJINDO LABORATORIES) per 1 L of water and having pH adjusted to 5.8), thereby preparing a medium containing the compound of the present invention at a concentration of 10 ppm.
Seeds of Nicotiana benthamiana were seeded in the 5 μL of the medium and cultured overnight at 22° C. Thereafter, 45 μL of the medium containing the compound of the present invention at a concentration of 10 ppm was added thereto, and the seeds are cultivated for 7 days at 22° C., an illuminance of 4,000 lux, and a day length of 16 hours, thereby the nursery plants raised from the Nicotiana benthamiana were treated with the compound.
Moreover, instead of the above medium a test plot, which was obtained by performing the same treatment by using a medium prepared by adding DMSO to the Murashige•Scoog medium of ½-fold concentration at a volume ratio of 1/1,000, was used as a control plot not treated with the compound.
The nursery plants of the Nicotiana benthamiana treated with the compound were subjected to low-temperature treatment by being cultivated for 7 days at 1.5±1.0° C., an illuminance of 2,000 lux, and a day length of 16 hours.
The nursery plants of the Nicotiana benthamiana having undergone the low-temperature stress treatment were cultivated for 3 days at 22° C., an illuminance of 4,000 lux, and a day length of 16 hours. Thereafter, the area of green leaf was quantified by Scanalyzer HTS (manufactured by LemnaTec GmbH). Moreover, the value of the control plot not treated with the compound that had not yet been subjected to the low-temperature stress treatment was measured in the same manner. A value of a relative leaf area was calculated based on the following equation (1), and if the value of a relative leaf area was 5 or greater, the compound was evaluated to have a mitigating effect. As a result of the evaluation, it was confirmed that when the plant was treated with one of the compounds 5, 14, 22, 23, 24, 25, 26, 28, 30, 31, 32, 33, 34, 35, 38, 39 and 40 of the present invention at 10 ppm, the value of a relative leaf area was 5 or greater, compared to the area of green leaf of the control plot not treated with compound. Accordingly, it was confirmed that the treatment using the compound of the present invention brings about a growth promotion effect. Relative leaf area=100*(a green area of a plot treated with the compound of the present invention−a green area of a control plot not treated with the compound of the present invention)/(a green area of a control plot not treated with the compound of the present invention that has not yet been subjected to low-temperature stress treatment−a green area of a control plot not treated with the compound of the present invention) Equation (1): […]
A DMSO solution, which contained one of the compounds 6, 7, 8, 11, 12, 15, 19, 23, 24, 25, 28, 30, 31, 33, 34, 36, 37, 38 and 39 of the present invention at a concentration of 1,000 ppm, was prepared. […]

Compound | relative green leaf area after low-temperature stress at 0.1 ppm [%]
COC(=O)c1cccc2sc(C(F)(F)F)cc12 [Compound 2, methyl 2-trifluoromethylbenzo[b]thiophene-4-carboxylate] | ≥ 5
NC(=O)c1cccc2sc(C(F)(F)F)cc12 [Compound 3, 2-trifluoromethylbenzo[b]thiophene-4-carboxamide] | ≥ 5
O=C(O)c1cccc2cc(C(F)(F)F)sc12 [Compound 9, 2-trifluoromethylbenzo[b]thiophene-7-carboxylic acid] | ≥ 5
COC(=O)c1cccc2cc(C(F)(F)F)sc12 [Compound 10, methyl 2-trifluoromethylbenzo[b]thiophene-7-carboxylate] | ≥ 5
O=C(O)c1csc2ccc(C(F)(F)F)cc12 [Compound 13, 5-trifluoromethylbenzo[b]thiophene-3-carboxylic acid] | ≥ 5
CCOC(=O)c1c(C(F)(F)F)sc2ccccc12 [Compound 22] | ≥ 5
O=C(Nc1ccccc1)c1csc2cc(C(F)(F)F)ccc12 [Compound 32] | ≥ 5
O=C(NCc1ccccc1)c1csc2cc(C(F)(F)F)ccc12 [Compound 33] | ≥ 5

Same assay, conditions: compound at 1 ppm, 7 days at 1.5±1.0° C. low-temperature stress, then 3 days at 22° C., green leaf area vs untreated control, read-out: value of a relative leaf area (equation (1))

Compound | relative green leaf area after low-temperature stress at 1 ppm [%]
O=C(O)c1cccc2ccsc12 [Compound 6, benzo[b]thiophene-7-carboxylic acid] | ≥ 5
NC(=O)c1cccc2ccsc12 [Compound 7, benzo[b]thiophene-7-carboxamide] | ≥ 5
COC(=O)c1cccc2ccsc12 [Compound 8, methyl benzo[b]thiophene-7-carboxylate] | ≥ 5
COC(=O)c1csc2ccccc12 [Compound 12, methyl benzo[b]thiophene-3-carboxylate] | ≥ 5
O=C(O)c1c(C(F)(F)F)sc2ccccc12 [Compound 15, 2-trifluoromethylbenzo[b]thiophene-3-carboxylic acid] | ≥ 5
CNC(=O)c1c(C(F)(F)F)sc2ccccc12 [Compound 24] | ≥ 5
O=C(NCc1ccccc1)c1csc2cc(C(F)(F)F)ccc12 [Compound 33] | ≥ 5

Same assay, conditions: compound at 10 ppm, 7 days at 1.5±1.0° C. low-temperature stress, then 3 days at 22° C., green leaf area vs untreated control, read-out: value of a relative leaf area (equation (1))

Compound | relative green leaf area after low-temperature stress at 10 ppm [%]
COC(=O)c1ccc2sccc2c1 [Compound 5, methyl benzo[b]thiophene-5-carboxylate] | ≥ 5
COC(=O)c1csc2ccc(C(F)(F)F)cc12 [Compound 14, methyl 5-trifluoromethylbenzo[b]thiophene-3-carboxylate] | ≥ 5
CCOC(=O)c1c(C(F)(F)F)sc2ccccc12 [Compound 22] | ≥ 5
CNC(=O)c1c(C(F)(F)F)sc2ccccc12 [Compound 24] | ≥ 5
O=C(Nc1ccccc1)c1csc2cc(C(F)(F)F)ccc12 [Compound 32] | ≥ 5
O=C(NCc1ccccc1)c1csc2cc(C(F)(F)F)ccc12 [Compound 33] | ≥ 5

Same assay, conditions: read-out: value of a relative leaf area (equation (1))

Compound | relative green leaf area after low-temperature stress at 1 ppm [%]
NC(=O)c1cccc2cc(C(F)(F)F)sc12 [Compound 11, 2-trifluoromethylbenzo[b]thiophene-7-carboxamide] | ≥ 5

Each compound was assayed on Rice (Variety: Nipponbare) (assay: Test for evaluating promotion of root growth by hydroponics of rice (Test Examples 1-3)). Conditions: 0.1 ppm.
Format: in vivo
Description: Rice (Variety: Nipponbare)
(§1) A DMSO solution, which contained one of the compounds 14, 18, 21, 23, 26, 28, 29, 30, 35, 36, 37, 39 and 40 of the present invention at a concentration of 100,000 ppm, was added to Hoagland hydroponic solution (Hoagland and Arnon, California Agricultural Experiment Station 1950 Circular 347 pp. 34) of ¼-fold concentration at a volume ratio of 1/10,000. In this manner, hydroponic solutions containing one of the compounds 14, 18, 21, 23, 26, 28, 29, 30, 35, 36, 37, 39 and 40 of the present invention at 10 ppm were prepared respectively. As an untreated control plot, a hydroponic solution obtained by adding DMSO to Hoagland hydroponic solution of ¼-fold concentration at a volume ratio of 1/10,000 was used.
(§2) Rice seeds were soaked in a 1% aqueous sodium hypochlorite solution for 10 minutes, then soaked in a 70% ethanol solution for surface sterilization, and then washed with distilled water. The sterilized seeds were soaked in a hydroponic solution containing the test compound described above at 10 ppm and incubated in a dark place for 3 days at 28° C. to perform treatment for hastening germination.
(§3) Thereafter, 30 ml of hydroponic solution containing the test compound at 10 ppm was dispensed in a plastic tube (diameter of 20 mm×height of 113 mm) of which the side was covered with cardboard to block light. A float prepared using a styrene board and vinyl mesh was floated, and the rice seeds that had undergone the treatment for hastening germination were placed on the float on the surface of the hydroponic solution. The seeds were cultivated for 3 days at 26° C., an illuminance of 4,000 lux of the top surface of the tube, a humidity of 50%, and a day length of 16 hours.
The nursery plants of rice obtained after cultivating were measured in terms of the length of seminal root by using WinRHIZO system (manufactured by Regent Instruments Inc). For each test plot, an average of the measured values of the seminal root of 4 or 5 individuals were determined.
as §1, with “compounds 7, 8, 9, 10, 12, 17, 20,” for “compounds 14, 18,”, “21, 25, 27,” for “21, 23, 26,”, “30, 34,” for “30,”, “37, 38,” for “37,”, “of 10,000” for “of 100,000”, “at 1” for “at 10”
as §2, with “at 1” for “at 10”
as §3, with “1” for “10”
The nursery plants of rice obtained after cultivation were measured in terms of the length of seminal root by using WinRHIZO system (manufactured by Regent Instruments Inc). […]

Compound | length of seminal root compared with the untreated control plot (in words)
O=C(O)c1cccc2sc(C(F)(F)F)cc12 [Compound 1, 2-trifluoromethylbenzo[b]thiophene-4-carboxylic acid] | obviously longer
NC(=O)c1cccc2sc(C(F)(F)F)cc12 [Compound 3, 2-trifluoromethylbenzo[b]thiophene-4-carboxamide] | obviously longer
O=C(O)c1cccc2ccsc12 [Compound 6, benzo[b]thiophene-7-carboxylic acid] | obviously longer
O=C(O)c1csc2ccc(C(F)(F)F)cc12 [Compound 13, 5-trifluoromethylbenzo[b]thiophene-3-carboxylic acid] | obviously longer
O=C(O)c1c(C(F)(F)F)sc2ccccc12 [Compound 15, 2-trifluoromethylbenzo[b]thiophene-3-carboxylic acid] | obviously longer
O=C(O)c1csc2cc(C(F)(F)F)ccc12 [Compound 27] | obviously longer

Same assay, conditions: 1 ppm

Compound | length of seminal root compared with the untreated control plot (in words)
NC(=O)c1cccc2ccsc12 [Compound 7, benzo[b]thiophene-7-carboxamide] | obviously longer
COC(=O)c1cccc2ccsc12 [Compound 8, methyl benzo[b]thiophene-7-carboxylate] | obviously longer
O=C(O)c1cccc2cc(C(F)(F)F)sc12 [Compound 9, 2-trifluoromethylbenzo[b]thiophene-7-carboxylic acid] | obviously longer
COC(=O)c1cccc2cc(C(F)(F)F)sc12 [Compound 10, methyl 2-trifluoromethylbenzo[b]thiophene-7-carboxylate] | obviously longer
COC(=O)c1csc2ccccc12 [Compound 12, methyl benzo[b]thiophene-3-carboxylate] | obviously longer
NC(=O)c1c(C(F)(F)F)sc2ccccc12 [Compound 17, 2-trifluoromethylbenzo[b]thiophene-3-carboxamide] | obviously longer
O=C(O)c1csc2cc(C(F)(F)F)ccc12 [Compound 27] | obviously longer

Same assay, conditions: 10 ppm

Compound | length of seminal root compared with the untreated control plot (in words)
COC(=O)c1csc2ccc(C(F)(F)F)cc12 [Compound 14, methyl 5-trifluoromethylbenzo[b]thiophene-3-carboxylate] | obviously longer
COC(=O)c1c(C(F)(F)F)sc2c(C(=O)OC)cccc12 [Compound 18, dimethyl 2-trifluoromethylbenzo[b]thiophene-3,7-dicarboxylate] | obviously longer
